The supplement of paper PMC10307832

How the values were obtained:
Experiment in all cases: relative viability (nuclei count vs DMSO), 5 days (fraction); higher = more cells survive
[1] = compound: O=C(NCCCNc1nc(Nc2cccc(NC(=O)N3CCCC3)c2)ncc1I)c1cccs1 [BX 795] + CC(=O)Nc1cccc(-n2c(=O)n(C3CC3)c(=O)c3c(Nc4ccc(I)cc4F)n(C)c(=O)c(C)c32)c1 [Trametinib] (partner 0.02 µM)
Summary of the method: (§1)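 One day after seeding in 1536-well plates, lung cancer cell lines were dosed by pin tool. Dosing was either single-drug or a fixed anchor-drug dose plus five library-drug doses (not always all listed) in √10 steps. After 5 days, nuclei were stained in one fix-and-stain step and counted on 4× images, and relative viability is the nuclei count of treated wells over that of vehicle wells, given as the median of duplicate plates.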

[2] = compound: O=C(NCCCNc1nc(Nc2cccc(NC(=O)N3CCCC3)c2)ncc1I)c1cccs1 [BX 795] + CC(C)C[C@H](NC(=O)[C@H](Cc1ccccc1)NC(=O)c1cnccn1)B(O)O [Bortezomib] (partner 0.002 µM)
Summary of the method: as §1

[3] = compound: O=C(NCCCNc1nc(Nc2cccc(NC(=O)N3CCCC3)c2)ncc1I)c1cccs1 [BX 795] + COc1cc2c(Oc3ccc(NC(=O)C4(C(=O)Nc5ccc(F)cc5)CC4)cc3F)ccnc2cc1OCCCN1CCOCC1 [Foretinib] (partner 0.25 µM)
Summary of the method: as §1

[4] = compound: O=C(NCCCNc1nc(Nc2cccc(NC(=O)N3CCCC3)c2)ncc1I)c1cccs1 [BX 795] + Cc1cc(Nc2cc(N3CCN(C)CC3)nc(Sc3ccc(NC(=O)C4CC4)cc3)n2)n[nH]1 [Tozasertib] (partner 0.1 µM)
Summary of the method: as §1

[5] = compound: O=C(NCCCNc1nc(Nc2cccc(NC(=O)N3CCCC3)c2)ncc1I)c1cccs1 [BX 795] + Nc1nc2[nH]cc(CCc3ccc(C(=O)N[C@@H](CCC(=O)O)C(=O)O)cc3)c2c(=O)[nH]1 [Pemetrexed] (partner 0.2 µM)
Summary of the method: as §1

HCC-78 showed a relative viability ([1]; first compound 0.04 µM) of 0.823, a relative viability ([1]; first compound 0.1265 µM) of 0.756 and a relative viability ([1]; first compound 0.4 µM) of 0.797. For the same cell line, the relative viability ([1]; first compound 1.265 µM) was 0.737, the relative viability ([2]; first compound 0.04 µM) was 0.735 and the relative viability ([2]; first compound 0.1265 µM) was 0.487. For the same cell line, the relative viability ([2]; first compound 0.4 µM) was 0.438, the relative viability ([2]; first compound 1.265 µM) was 0.41 and the relative viability ([3]; first compound 0.04 µM) was 0.665. For the same cell line, the relative viability ([3]; first compound 0.1265 µM) was 0.537, the relative viability ([3]; first compound 0.4 µM) was 0.596 and the relative viability ([3]; first compound 1.265 µM) was 0.5. The relative viability ([4]; first compound 0.04 µM) was 0.472, the relative viability ([4]; first compound 0.1265 µM) was 0.317 and the relative viability ([4]; first compound 0.4 µM) was 0.345. For the same cell line, the relative viability ([4]; first compound 1.265 µM) was 0.386, the relative viability ([5]; first compound 0.04 µM) was 0.913 and the relative viability ([5]; first compound 0.1265 µM) was 0.888. The relative viability ([5]; first compound 0.4 µM) was 0.873 and the relative viability ([5]; first compound 1.265 µM) was 0.883.
Cell Line HCC-44 has a relative viability ([1]; first compound 0.04 µM) of 1.14, a relative viability ([1]; first compound 0.1265 µM) of 1.08 and a relative viability ([1]; first compound 0.4 µM) of 1.23. It also gave a relative viability ([1]; first compound 1.265 µM) of 1.12, a relative viability ([2]; first compound 0.04 µM) of 0.818 and a relative viability ([2]; first compound 0.1265 µM) of 0.929. The relative viability ([2]; first compound 0.4 µM) was 1.1, the relative viability ([2]; first compound 1.265 µM) was 0.772 and the relative viability ([4]; first compound 0.04 µM) was 0.934. For the same cell line, the relative viability ([4]; first compound 0.1265 µM) was 1.05, the relative viability ([4]; first compound 0.4 µM) was 0.581 and the relative viability ([4]; first compound 1.265 µM) was 0.351. It also gave a relative viability ([5]; first compound 0.04 µM) of 0.537, a relative viability ([5]; first compound 0.1265 µM) of 0.614 and a relative viability ([5]; first compound 0.4 µM) of 0.449. The relative viability ([5]; first compound 1.265 µM) was 0.666.
Cell Line A549 has a relative viability ([3]; first compound 0.04 µM) of 0.911, a relative viability ([3]; first compound 0.1265 µM) of 1.02 and a relative viability ([3]; first compound 0.4 µM) of 1.03. For the same cell line, the relative viability ([3]; first compound 1.265 µM) was 0.647.
HCC-15 showed a relative viability ([1]; first compound 0.04 µM) of 0.389, a relative viability ([1]; first compound 0.1265 µM) of 0.381 and a relative viability ([1]; first compound 0.4 µM) of 0.505. It also gave a relative viability ([1]; first compound 1.265 µM) of 0.355, a relative viability ([2]; first compound 0.04 µM) of 0.969 and a relative viability ([2]; first compound 0.1265 µM) of 1.02. The relative viability ([2]; first compound 0.4 µM) was 0.99, the relative viability ([2]; first compound 1.265 µM) was 0.778 and the relative viability ([3]; first compound 0.04 µM) was 0.973. The relative viability ([3]; first compound 0.1265 µM) was 1.04, the relative viability ([3]; first compound 0.4 µM) was 0.925 and the relative viability ([3]; first compound 1.265 µM) was 0.915. For the same cell line, the relative viability ([4]; first compound 0.04 µM) was 0.444, the relative viability ([4]; first compound 0.1265 µM) was 0.359 and the relative viability ([4]; first compound 0.4 µM) was 0.482. The relative viability ([4]; first compound 1.265 µM) was 0.246, the relative viability ([5]; first compound 0.04 µM) was 0.199 and the relative viability ([5]; first compound 0.1265 µM) was 0.202. It also gave a relative viability ([5]; first compound 0.4 µM) of 0.215 and a relative viability ([5]; first compound 1.265 µM) of 0.194.
H3255 gave a relative viability ([1]; first compound 0.04 µM) of 0.616, a relative viability ([1]; first compound 0.1265 µM) of 0.666 and a relative viability ([1]; first compound 0.4 µM) of 0.655. The relative viability ([1]; first compound 1.265 µM) was 0.565, the relative viability ([2]; first compound 0.04 µM) was 0.731 and the relative viability ([2]; first compound 0.1265 µM) was 0.816. For the same cell line, the relative viability ([2]; first compound 0.4 µM) was 1.11, the relative viability ([2]; first compound 1.265 µM) was 0.66 and the relative viability ([3]; first compound 0.04 µM) was 0.965. It also gave a relative viability ([3]; first compound 0.1265 µM) of 0.764, a relative viability ([3]; first compound 0.4 µM) of 1.02 and a relative viability ([3]; first compound 1.265 µM) of 0.848. The relative viability ([4]; first compound 0.04 µM) was 0.716, the relative viability ([4]; first compound 0.1265 µM) was 0.605 and the relative viability ([4]; first compound 0.4 µM) was 0.773. For the same cell line, the relative viability ([4]; first compound 1.265 µM) was 0.55, the relative viability ([5]; first compound 0.04 µM) was 0.615 and the relative viability ([5]; first compound 0.1265 µM) was 0.531. For the same cell line, the relative viability ([5]; first compound 0.4 µM) was 0.584 and the relative viability ([5]; first compound 1.265 µM) was 0.509.
With CAL-12T the relative viability ([1]; first compound 0.04 µM) was 0.273, the relative viability ([1]; first compound 0.1265 µM) was 0.298 and the relative viability ([1]; first compound 0.4 µM) was 0.322. The relative viability ([1]; first compound 1.265 µM) was 0.24, the relative viability ([2]; first compound 0.04 µM) was 0.954 and the relative viability ([2]; first compound 0.1265 µM) was 0.929. For the same cell line, the relative viability ([2]; first compound 0.4 µM) was 1.04, the relative viability ([2]; first compound 1.265 µM) was 0.623 and the relative viability ([3]; first compound 0.04 µM) was 1.16. It also gave a relative viability ([3]; first compound 0.1265 µM) of 1.13, a relative viability ([3]; first compound 0.4 µM) of 0.873 and a relative viability ([3]; first compound 1.265 µM) of 1.07. It also gave a relative viability ([4]; first compound 0.04 µM) of 0.323, a relative viability ([4]; first compound 0.1265 µM) of 0.288 and a relative viability ([4]; first compound 0.4 µM) of 0.298. For the same cell line, the relative viability ([4]; first compound 1.265 µM) was 0.263, the relative viability ([5]; first compound 0.04 µM) was 1.1 and the relative viability ([5]; first compound 0.1265 µM) was 1.28. For the same cell line, the relative viability ([5]; first compound 0.4 µM) was 0.809 and the relative viability ([5]; first compound 1.265 µM) was 0.494.
NCI-H441 gave a relative viability ([1]; first compound 0.04 µM) of 0.545, a relative viability ([1]; first compound 0.1265 µM) of 0.4 and a relative viability ([1]; first compound 0.4 µM) of 0.596. It also gave a relative viability ([1]; first compound 1.265 µM) of 0.335, a relative viability ([2]; first compound 0.04 µM) of 0.393 and a relative viability ([2]; first compound 0.1265 µM) of 0.541. It also gave a relative viability ([2]; first compound 0.4 µM) of 0.747, a relative viability ([2]; first compound 1.265 µM) of 0.577 and a relative viability ([3]; first compound 0.04 µM) of 1.28. It also gave a relative viability ([3]; first compound 0.1265 µM) of 0.908, a relative viability ([3]; first compound 0.4 µM) of 1.18 and a relative viability ([3]; first compound 1.265 µM) of 0.796. It also gave a relative viability ([4]; first compound 0.04 µM) of 0.857, a relative viability ([4]; first compound 0.1265 µM) of 0.567 and a relative viability ([4]; first compound 0.4 µM) of 0.834. For the same cell line, the relative viability ([4]; first compound 1.265 µM) was 0.376, the relative viability ([5]; first compound 0.04 µM) was 0.255 and the relative viability ([5]; first compound 0.1265 µM) was 0.272. For the same cell line, the relative viability ([5]; first compound 0.4 µM) was 0.281 and the relative viability ([5]; first compound 1.265 µM) was 0.267.
With HCC-366 the relative viability ([1]; first compound 0.04 µM) was 0.391, the relative viability ([1]; first compound 0.1265 µM) was 0.338 and the relative viability ([1]; first compound 0.4 µM) was 0.421. It also gave a relative viability ([1]; first compound 1.265 µM) of 0.32, a relative viability ([2]; first compound 0.04 µM) of 1.08 and a relative viability ([2]; first compound 0.1265 µM) of 1.1. For the same cell line, the relative viability ([2]; first compound 0.4 µM) was 0.866, the relative viability ([2]; first compound 1.265 µM) was 1.09 and the relative viability ([3]; first compound 0.04 µM) was 0.973. The relative viability ([3]; first compound 0.1265 µM) was 0.959, the relative viability ([3]; first compound 0.4 µM) was 0.94 and the relative viability ([3]; first compound 1.265 µM) was 0.235. The relative viability ([4]; first compound 0.04 µM) was 0.228, the relative viability ([4]; first compound 0.1265 µM) was 0.0924 and the relative viability ([4]; first compound 0.4 µM) was 0.0936. For the same cell line, the relative viability ([4]; first compound 1.265 µM) was 0.0708, the relative viability ([5]; first compound 0.04 µM) was 0.104 and the relative viability ([5]; first compound 0.1265 µM) was 0.168. The relative viability ([5]; first compound 0.4 µM) was 0.0915 and the relative viability ([5]; first compound 1.265 µM) was 0.149.
NCI-H1437 showed a relative viability ([1]; first compound 0.04 µM) of 0.496, a relative viability ([1]; first compound 0.1265 µM) of 0.605 and a relative viability ([1]; first compound 0.4 µM) of 0.516. For the same cell line, the relative viability ([1]; first compound 1.265 µM) was 0.538, the relative viability ([2]; first compound 0.04 µM) was 0.543 and the relative viability ([2]; first compound 0.1265 µM) was 0.493. For the same cell line, the relative viability ([2]; first compound 0.4 µM) was 0.533, the relative viability ([2]; first compound 1.265 µM) was 0.415 and the relative viability ([3]; first compound 0.04 µM) was 1.08. It also gave a relative viability ([3]; first compound 0.1265 µM) of 1.25, a relative viability ([3]; first compound 0.4 µM) of 1.39 and a relative viability ([3]; first compound 1.265 µM) of 0.99. For the same cell line, the relative viability ([4]; first compound 0.04 µM) was 0.378, the relative viability ([4]; first compound 0.1265 µM) was 0.395 and the relative viability ([4]; first compound 0.4 µM) was 0.429. For the same cell line, the relative viability ([4]; first compound 1.265 µM) was 0.413, the relative viability ([5]; first compound 0.04 µM) was 0.277 and the relative viability ([5]; first compound 0.1265 µM) was 0.305. The relative viability ([5]; first compound 0.4 µM) was 0.257 and the relative viability ([5]; first compound 1.265 µM) was 0.321.
